Results published in US8987285B2, “Pharmaceutical compositions, dosage forms and new forms of the compound of formula (I), and methods of use thereof” (Portola Pharmaceuticals, Inc., priority 2010, dated 2015).
Values joined by “and” are separate entries in the source; they are usually repeats but may differ in a detail not shown here. Equal entries are not always repeated.

Key:
[1] = Pharmacokinetic Study 1: FMI tablets fasted/fed versus reference IR capsule, crossover, healthy adult volunteers; type: in vivo, human; conditions: high fat meal versus fasted, FMI tablets
Method: This was an open label, randomized, four-period, incomplete crossover, single center study in healthy adult volunteers. There were 4 treatments in the study: 3 doses of the FMI (given fasting or fed following a high-fat breakfast) and one reference IR capsule (given fed after a typical breakfast). The term “FMI” refers to the dosage form of Example 7 (30 mg FMI) or Example 8 (75 mg FMI).
Each subject was randomized to 1 of 18 treatment sequences, each with 4 treatment periods (Table 27). The first treatment period consisted of 1 of the 3 doses of FMI given fed, and treatment periods 2 to 4 consisted of 1 dose of IR capsule (fed) and 2 of the 3 doses of the FMI given fasted. […] Each subject therefore had 2 fasting treatments with the FMI formulation, 1 fed treatment with the FMI formulation and a reference treatment (IR capsule). Seventy two subjects enrolled and were dosed in the study with 70 completers.
The study consisted of a 28-day screening period, four baseline periods (one before each treatment period), four treatment periods with a wash out period of a minimum of 5 days, followed by a study completion evaluation approximately 72 hours after the last drug administration. Subjects who met the eligibility criteria at screening were admitted to baseline evaluations. All baseline safety evaluation results were available prior to dosing.
For fasted administration, elinogrel was administered in the morning, following an overnight fast of at least 10 hours. Subjects continued to fast until 4 hours post-dose. For fed administration of FMI tablets, elinogrel was administered in the morning, within 30 minutes of a high fat breakfast (approximately 1000 calories). Subjects continued to fast until 4 hours post-dose. For fed administration of the reference (IR capsule), it was administered in the morning, within 30 minutes of a typical breakfast (approximately 500 calories). Subjects continued to fast until 4 hours post-dose.
Subjects were admitted to the study site approximately 12 hours prior to dosing in each period for baseline evaluations. Following a single dose of elinogrel, PK assessments were taken up to 48 hours post dose and safety assessments were made for up to 72 hours.
Subjects were domiciled for 24 hours post dosing for PK sample collection, at which time they were discharged from the study site. Subjects returned on the following 2 mornings for 48 hour PK and 72 hour safety samples. Following the 72 hour safety assessments of treatment period 4 (or in the case of subject discontinuation) subjects underwent study completion evaluations and were discharged from the study. […].
This was a three-period, four-treatment crossover study design with an add-on food effect period (Period 1).
Treatment 1 (T1)=elinogrel 30 mg FMI dose fasting
Treatment 2 (T2)=elinogrel 75 mg FMI dose fasting
Treatment 3 (T3)=elinogrel 150 mg FMI dose fasting
Reference (R)=elinogrel 150 mg IR capsule dose fed (typical breakfast); Example 6 (Reference)
Fed treatment 1 (F1)=elinogrel 30 mg FMI dose fed (high fat breakfast)
Fed treatment 2 (F2)=elinogrel 75 mg FMI dose fed (high fat breakfast)
Fed treatment 3 (F3)=elinogrel 150 mg FMI dose fed (high fat breakfast)
Subjects will received the following treatments in a randomized order: • Treatment (T1, F1) with IR (IR=immediate release) tablet of Example 7 containing pH-modifying alkalizing agent, 30 mg in fasted and fed state. • Treatment (T2, F2) with IR (IR=immediate release) tablet of Example 8 containing pH-modifying alkalizing agent, 75 mg in fasted and fed state • Treatment (R) with 2×IR (IR=immediate release) capsule of Example 6 (Reference): 2×75 mg (150 mg) in fed state. • Treatment (T3, F3) with 2×IR (IR=immediate release) tablet of Example 8 containing pH-modifying alkalizing agent, 2×75 mg (150 mg) in fasted and fed state.
To evaluate the food effect, the geometric mean ratio for PK parameters of the fed versus fasted for each dose level and its 90% CI was estimated as shown in Table 29 below.

[2] = Comparison of pharmacokinetic effects (AUC, bioavailability) in human studies for polymorphic form B, A and D; type: in vivo; conditions: polymorphs of the potassium salt
Method: Comparison of pharmacokinetic effects in human studies for polymorphic form B, A and D of the potassium salt of elinogrel.
Therefore the polymorphic form does have a strong impact on the bioavailability of the drug.
The bioavailability is measured in a human study according to FDA guidelines for conducting bioavailability studies. The area under the curve (AUC) of elinogrel potassium salt polymorph.

[3] = Wettability: contact angle measurement with water on pressed powder; type: physicochemical; conditions: for surface hydrophobilicity from contact angle: critical angle around 50° (>50° hydrophob <50° hydrophil); for Contact angle: water, in ° (unit assumed)
Method: Contact angel instrument: EasyDrop DSA15E (Krüss, Hamburg, Germany)
Syringe: NE44, diameter of needle 0.5 mm (Krüss, Hamburg, Germany)
The powder was pressed (approx 50 mg powder, 3 tons, 2 min) in tablets and analyzed by contact angle measurement. The angel between the solid and the liquid is measured after 0 and up to 60 seconds using water.
All determinations used the above method and the limit for the standards measurements are well within the given limits.

[4] = Relative thermodynamic stability: cross-seeding, suspensions equilibrated, solid analysed by X-ray powder diffraction; type: physicochemical
Method: The relative thermodynamic stability of the anhydrous form poly-D in comparison with the known Forms A and B of the compound of formula (I) was assessed by cross-seeding experiments, where mixtures of the anhydrous form poly-D and Form A and mixtures of the anhydrous form poly-D and Form B were separately suspended in water, an organic solvent or mixtures of water and organic solvents. The suspension was then equilibrated at various temperatures for several days. The solid parts were then isolated by filtration and analysed by X-ray powder diffraction.

[5] = Saturation solubility, shake-flask with UV quantification; type: physicochemical; conditions: listed as The compound of formula (I)
Method: The FaSSIF and FeSSIF solutions were prepared using Phares SIF powder according to the formulation instructions and the SGF solution was prepared using the guidelines provided. […] The pH and temperature of the supernatant were measured on a SiriusT3 instrument.

[6] = Super-saturation measurement (CheqSol): intrinsic and kinetic solubility; type: physicochemical; conditions: kinetic solubility divided by intrinsic solubility
From the text: Anal. Chem. 2005, 77(4), 983-990; 2—Box, K J. Völgyi, G. Baka, E. Stuart, M. Takács-Novák, K. Corner, J E A. Equilibrium vs. kinetic measurements of aqueous solubility, and the ability of compounds to supersaturate in solution—a validation study. J. Pharm. Sci. 2006, 95, 1298-1307; 3—Sköld, C. Winiwarter, S. Johan Wernevik, J. Bergström, F. Engström, L. Allen, R. Box, K. Corner, J. Mole, J. Hallberg, A. Lennernäs, H. Lundstedt, T. Ungell, A-L. Karlén, A. Presentation of a Structurally Diverse and Commercially Available Drug Data Set for Correlation and Benchmarking Studies. J. Med. Chem. 2006, 49(23), 6660-6671;
. Med. Chem.; 2007, 50 (5), 979-983; 5—Llinás, A. Box, K J. Burley, J C. Glen, R C. Goodman, J M. J. A new method for the reproducible generation of polymorphs: two forms of Sulindac with very different solubilities. […] 6—Box K et al, Using Measured pKa, Log P and Solubility to Investigate Supersaturation and Predict BCS Class, Current Drug Metabolism, 2008, 9, 869-878]
1—kinetic solubility is the concentration of a compound in solution at the time when an induced precipitate first appears
2—equilibrium solubility (also called thermodynamic solubility) is the concentration of compound in a saturated solution when excess solid is present, and solution and solid are at equilibrium
3—intrinsic solubility [Hörter, D.; Dressman, J. B. Adv. Drug Deliv. Rev., 1997, 25, 3-14] is the equilibrium solubility of the free acid or base form of an ionisable compound at a pH where it is fully un-ionized
The super-saturation ratio is calculated as the ratio of kinetic solubility divided by the Intrinsic Solubility.

**Q.** For `CNc1cc2[nH]c(=O)n(-c3ccc(NC(=O)[N-]S(=O)(=O)c4ccc(Cl)s4)cc3)c(=O)c2cc1F.[K+]` [Form poly-D], which food effect [1] is on record?
**A.** The food effect was “significant negative food effect”.

**Q.** And the “AUC (bioavailability)” value ([2]; 150 mg dose, listed as polymorph D, potassium salt)?
**A.** The value was 35227 ng·h/mL.

**Q.** What about the “surface hydrophobilicity from contact angle” value ([3]; listed as polymorph poly-D, potassium salt) of the same compound?
**A.** The value was “hydrophilic”.

**Q.** What about the Contact angle ([3]; 0 sec, potassium salt) of the same compound?
**A.** Its Contact angle is 55.7 and 78.1 and 53.3.

**Q.** And the Contact angle ([3]; 10 sec, potassium salt)?
**A.** The Contact angle was 27.7 and 33.4 and 28.2.

**Q.** What about the Contact angle ([3]; 20 sec, potassium salt) of the same compound?
**A.** The Contact angle was 16.1 and 21.7 and 22.9.

**Q.** And the Contact angle ([3]; 30 sec, potassium salt)?
**A.** Its Contact angle is 20.6.

**Q.** And the Contact angle ([3]; 60 sec, potassium salt)?
**A.** Its Contact angle is 15.2.

**Q.** What about the “solid form after equilibration (XRPD)” value ([4]; MeOH, 25° C./4 days) of the same compound?
**A.** Its value is “No change”.

**Q.** What about the “solid form after equilibration (XRPD)” value ([4]; MeOH, 50° C./3 days) of the same compound?
**A.** Its value is “No change”.

**Q.** What about the “solid form after equilibration (XRPD)” value ([4]; MeOH/water 1:1 v/v, 25° C./4 days) of the same compound?
**A.** Its value is “No change”.

**Q.** What about the “solid form after equilibration (XRPD)” value ([4]; MeOH/water 1:1 v/v, 50° C./3 days) of the same compound?
**A.** The value was “No change”.

**Q.** What about the “solid form after equilibration (XRPD)” value ([4]; MeOH/water 1:2 v/v, 25° C./4 days) of the same compound?
**A.** The value was “No change”.

**Q.** And the “solid form after equilibration (XRPD)” value ([4]; MeOH/water 1:2 v/v, 50° C./3 days)?
**A.** Its value is “No change”.

**Q.** And the “solid form after equilibration (XRPD)” value ([4]; MeOH/water 2:1 v/v, 25° C./4 days)?
**A.** Its value is “No change”.

**Q.** What about the “solid form after equilibration (XRPD)” value ([4]; MeOH/water 2:1 v/v, 50° C./3 days) of the same compound?
**A.** The value was “No change”.

**Q.** And the “solid form after equilibration (XRPD)” value ([4]; water, 25° C./4 days)?
**A.** The value was “No change”.

**Q.** And the “solid form after equilibration (XRPD)” value ([4]; water, 50° C./3 days)?
**A.** Its value is “No change”.

**Q.** And the Saturation solubility ([5]; FaSSIF pH 6.5-1w, mean N = 2, form poly-D, potassium salt)?
**A.** The Saturation solubility was 166.50 µg/mL.

**Q.** And the “final pH measured of the supernatant” value ([5]; FaSSIF pH 6.5-1w, form poly-D, potassium salt)?
**A.** Its value is 7.00.

**Q.** What about the Saturation solubility ([5]; FeSSIF pH 5.0-1w, mean N = 2, form poly-D, potassium salt) of the same compound?
**A.** The Saturation solubility was 6.94 µg/mL.

**Q.** And the “final pH measured of the supernatant” value ([5]; FeSSIF pH 5.0-1w, form poly-D, potassium salt)?
**A.** Its value is 5.17.

**Q.** And the Saturation solubility ([5]; Na Phosphate pH 6.8, mean N = 2, form poly-D, potassium salt)?
**A.** Its Saturation solubility is 94.55 µg/mL.

**Q.** And the “final pH measured of the supernatant” value ([5]; Na Phosphate pH 6.8, form poly-D, potassium salt)?
**A.** Its value is 7.08.

**Q.** What about the Saturation solubility ([5]; Na-Acetate pH 4.5, mean N = 2, form poly-D, potassium salt) of the same compound?
**A.** The Saturation solubility was 0.86 µg/mL.

**Q.** And the “final pH measured of the supernatant” value ([5]; Na-Acetate pH 4.5, form poly-D, potassium salt)?
**A.** The value was 4.82.

**Q.** And the Saturation solubility ([5]; SGF pH 2.1, mean N = 2, form poly-D, potassium salt)?
**A.** The Saturation solubility was 46.10 µg/mL.

**Q.** And the “final pH measured of the supernatant” value ([5]; SGF pH 2.1, form poly-D, potassium salt)?
**A.** The value was 6.34.

**Q.** Which AUC ([2]; human, plasma, oral, 150 mg) does the source give for `CNc1cc2[nH]c(=O)n(-c3ccc(NC(=O)[N-]S(=O)(=O)c4ccc(Cl)s4)cc3)c(=O)c2cc1F.[K+]` [Form B] here?
**A.** Its AUC is 27600 ng·h/mL.

**Q.** And the “surface hydrophobilicity from contact angle” value ([3]; listed as polymorph B)?
**A.** The value was “hydrophob”.

**Q.** And the Contact angle ([3]; 0 sec, listed as B)?
**A.** Its Contact angle is 79.7 and 72.4.

**Q.** What about the Contact angle ([3]; 30 sec, listed as B) of the same compound?
**A.** Its Contact angle is 55.2 and 54.6.

**Q.** And the Contact angle ([3]; 60 sec, listed as B)?
**A.** The Contact angle was 52.8 and 53.5.

**Q.** What about the Saturation solubility ([5]; FaSSIF pH 6.5-1w, mean N = 2, form B) of the same compound?
**A.** The Saturation solubility was 132.50 µg/mL.

**Q.** And the “final pH measured of the supernatant” value ([5]; FaSSIF pH 6.5-1w, form B)?
**A.** The value was 6.97.

**Q.** What about the Saturation solubility ([5]; FeSSIF pH 5.0-1w, mean N = 2, form B) of the same compound?
**A.** Its Saturation solubility is 2.49 µg/mL.

**Q.** And the “final pH measured of the supernatant” value ([5]; FeSSIF pH 5.0-1w, form B)?
**A.** Its value is 5.16.

**Q.** And the Saturation solubility ([5]; Na Phosphate pH 6.8, mean N = 2, form B)?
**A.** The Saturation solubility was 25.95 µg/mL.

**Q.** And the “final pH measured of the supernatant” value ([5]; Na Phosphate pH 6.8, form B)?
**A.** The value was 7.02.

**Q.** And the Saturation solubility ([5]; Na-Acetate pH 4.5, mean N = 2, form B)?
**A.** The Saturation solubility was 0.40 µg/mL.

**Q.** And the “final pH measured of the supernatant” value ([5]; Na-Acetate pH 4.5, form B)?
**A.** Its value is 4.81.

**Q.** And the Saturation solubility ([5]; SGF pH 2.1, mean N = 2, form B)?
**A.** The Saturation solubility was 19.14 µg/mL.

**Q.** And the “final pH measured of the supernatant” value ([5]; SGF pH 2.1, form B)?
**A.** The value was 5.05.

**Q.** What about the ratio super saturation ([6]; listed as K-salt-Form B) of the same compound?
**A.** Its ratio super saturation is 363.

**Q.** And the ratio super saturation ([6]; listed as polymorph B of the compound of formula (I))?
**A.** Its ratio super saturation is 363.
